Reference: patent US20250032530A1, “USE OF AURANOFIN AS AN INHIBITOR OF ATYPICAL PROTEIN KINASE C FOR TREATMENT OF NEURODEGENERATIVE DISORDERS” (UNIVERSITY OF SOUTH FLORIDA, priority 2021, published 2025)
Read-outs that look alike come from different tables or passages of the source. One block for each molecule: values may come before it.

Assays:
Akt = assay: Insulin-induced Akt activation in LA1-5s neuronal cells; format: cell-based, human; conditions: 200 nM insulin, 24 hours
Description: (§1) Cell lysates were subjected to Western analyses for phosphorylated/activated forms of aPKC, NFκB and Akt. Representative blots of indicated proteins are shown in upper bands. […] Bargrams show Mean±SEM of 3-4 determinations. Asterisks indicate P<0.05; comparison of designated group versus the uninhibited, insulin-treated group (ANOVA).
(§2) LA1-5s neuronal cells were originally obtained from non-catecholamine-producing neuroblastoma of a person and are commercially available from the European Collection of Authenticated Cell Cultures. Incubation conditions were as described.
(§3) As described, western analyses were conducted with rabbit antisera, using: anti-aPKC [recognizes a C-terminal sequence in all aPKCs (Santa Cruz Biotechnologies, Santa Cruz, CA, USA)]; anti-phospho-threonine (thr)-560/555-PKC-ζ/λ/ι [recognizes a phosphopeptide sequence present in all aPKCs and indicates activation (Invitrogen, Carlsbad, CA, USA)]; anti-phospho-serine (ser)-473-Akt [recognizes a phosphopeptide sequence at 60 kDa present in all Akt's-1/2/3 and indicates activation (Cell Signaling Technologies, Danvers, MA, USA)]; anti-4 kDa-AP1-40/42 (Cell Signaling Technologies, Danvers, MA, USA); anti-mouse-70 kDa-BACE1 and anti-human-70 kDa-BACE1 (ThermoFisher); and anti-phospho-threonine (thr)-231-tau (Gene Tex, Irvine, CA, USA). […]

recombinant PKC-ι/λ [1] = target: T1, recombinant PKC-ι/λ (Homo sapiens, UniProt P41743); assay: Inhibition of recombinant PKC-ι/λ; format: biochemical; conditions: Example 2
T1 sequence (P41743 1-596): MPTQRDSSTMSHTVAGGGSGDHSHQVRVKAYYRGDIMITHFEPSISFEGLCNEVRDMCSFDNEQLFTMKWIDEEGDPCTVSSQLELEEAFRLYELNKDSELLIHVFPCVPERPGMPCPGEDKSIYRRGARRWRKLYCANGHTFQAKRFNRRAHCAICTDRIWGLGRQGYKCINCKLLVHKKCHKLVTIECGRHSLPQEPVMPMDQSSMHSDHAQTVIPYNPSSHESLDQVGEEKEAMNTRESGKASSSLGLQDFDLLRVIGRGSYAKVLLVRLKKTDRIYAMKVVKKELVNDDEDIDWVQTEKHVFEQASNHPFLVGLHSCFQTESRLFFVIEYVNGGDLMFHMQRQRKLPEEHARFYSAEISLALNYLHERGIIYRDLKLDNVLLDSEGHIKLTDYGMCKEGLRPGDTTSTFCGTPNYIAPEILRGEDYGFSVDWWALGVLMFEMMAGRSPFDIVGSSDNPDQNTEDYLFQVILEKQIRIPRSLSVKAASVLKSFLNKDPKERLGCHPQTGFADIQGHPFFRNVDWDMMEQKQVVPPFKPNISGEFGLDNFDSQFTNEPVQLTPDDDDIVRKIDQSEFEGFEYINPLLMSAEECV
Description: 1H-imidazole-4-carboxamide,-5-amino-1-[2,3-dihydroxy-4-[(hydroxyl)methyl]cyclopentyl-[1R-(1a,2b,3b,4a)] […] (ICAPP).
aPKC Inhibitors. We identified by HTS compounds that target the substrate-binding site of aPKCs and potently (IC50s10-30 nM) inhibit recombinant PIP3-dependent aPKCs, but not DAG-dependent PKCs. Three compounds have been studied in detail: (a) 1H-imidazole-4-carboxamide, 5-amino-1-[2,3-dihydroxy-4-[(phosphono-oxy)methyl]cyclopentyl-[1R-(1a,2b,3b,4a)] […] Thus, these agents can reduce brain aPKC activity, indirectly at lower doses by inhibiting liver aPKC and correcting hyperinsulinemia in insulin-resistant states, and, at higher doses, by acting directly on brain PKC-λ/ι.

[2] = tested on: PKC-λ/ι activity, BACE1 activity, Aβ1-40/42; conditions: LA1-5s neuronal cells, previously reported; cited from earlier work
aPKC = conditions: cited from earlier work
recombinant PKC-ι/λ [3] = target: T1, recombinant PKC-ι/λ; conditions: cited from earlier work
recombinant PKC-ζ = target: T2, recombinant PKC-ζ (Homo sapiens, UniProt Q05513); conditions: cited from earlier work
T2 sequence (Q05513 1-592): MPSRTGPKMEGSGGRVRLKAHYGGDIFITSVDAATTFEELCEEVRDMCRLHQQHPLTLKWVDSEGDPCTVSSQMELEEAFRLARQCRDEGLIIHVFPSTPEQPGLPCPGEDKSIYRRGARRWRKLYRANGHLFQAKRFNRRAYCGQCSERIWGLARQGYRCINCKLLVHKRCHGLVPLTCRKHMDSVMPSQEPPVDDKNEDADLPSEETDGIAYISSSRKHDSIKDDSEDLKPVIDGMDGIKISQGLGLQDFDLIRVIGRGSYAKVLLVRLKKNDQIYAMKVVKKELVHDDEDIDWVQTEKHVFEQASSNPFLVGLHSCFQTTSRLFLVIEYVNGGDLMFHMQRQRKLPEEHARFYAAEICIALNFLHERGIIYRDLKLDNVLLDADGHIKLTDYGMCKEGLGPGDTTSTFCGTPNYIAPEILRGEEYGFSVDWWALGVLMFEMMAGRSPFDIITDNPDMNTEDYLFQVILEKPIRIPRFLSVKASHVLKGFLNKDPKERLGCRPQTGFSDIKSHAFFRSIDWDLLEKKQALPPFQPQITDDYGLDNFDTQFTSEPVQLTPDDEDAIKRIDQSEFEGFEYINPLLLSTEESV

NFκB = assay: Insulin-induced NFκB activity in LA1-5s neuronal cells; format: cell-based, human; conditions: 200 nM insulin, 24 hours; 1 μM ACPD, increasing concentrations of auranofin
Description: as §1, §2, §3

[4] = tested on: aPKC, Akt2, AMP-activated kinase (AMPK), FoxO1; conditions: isolated human hepatocytes; cited from earlier work
[5] = tested on: recombinant forms of PKC-α, PKC-β, PKC-δ, PKCε, or PKC-θ; conditions: cited from earlier work
BACE1 = BACE1 levels in LA1-5s neuronal cells treated with insulin; format: cell-based, human
Description: Values of BACE1 are Mean±SEM of 4 values. Asterisks indicate P<0.05 for comparison of designated group versus the untreated control group (ANOVA).
as §2
As described, western analyses were conducted with rabbit antisera, using: anti-aPKC [recognizes a C-terminal sequence in all aPKCs (Santa Cruz Biotechnologies, Santa Cruz, CA, USA)]; anti-phospho-threonine (thr)-560/555-PKC-ζ/λ/ι [recognizes a phosphopeptide sequence present in all aPKCs and indicates activation (Invitrogen, Carlsbad, CA, USA)]; anti-phospho-serine (ser)-473-Akt [recognizes a phosphopeptide sequence at 60 kDa present in all Akt's-1/2/3 and indicates activation (Cell Signaling Technologies, Danvers, MA, USA)]; anti-4 kDa-AP1-40/42 (Cell Signaling Technologies, Danvers, MA, USA); anti-mouse-70 kDa-BACE1 and anti-human-70 kDa-BACE1 (ThermoFisher); and anti-phospho-threonine (thr)-231-tau (Gene Tex, Irvine, CA, USA). Samples from all experimental groups within each study were compared on the same blots and routinely checked with loading controls. All comparisons in histograms were made relative to the mean value of the basal control group, i.e., wild-type mice consuming standard low-fat mouse chow, untreated with insulin or aPKC inhibitors, and having normal levels of aPKCs and other cellular proteins.

PKCι and PKCζ = conditions: cited from earlier work

IC50 (recombinant PKC-ι/λ [1]): 1 to 10 nM
Structure (SMILES): NC(=O)c1ncn([C@@H]2C[C@H](COP(=O)(O)O)[C@@H](O)[C@H]2O)c1N [ICAPP]
insulin-induced Akt activation (Akt): not Akt activation
insulin-induced increases in PKC-λ/ι activity, BACE1 activity and production of Aβ1-40/42 [2]: blocked
inhibition of brain aPKC (aPKC; at higher doses): inhibit brain aPKC
aPKC inhibition in liver, muscle, adipose tissue (aPKC; intact mice, employed doses): inhibit aPKC in liver, but not in muscle or adipose tissue
IC50 (recombinant PKC-ι/λ [3]): 1 to 10 nM
IC50 (recombinant PKC-ζ): 200 to 500 nM
insulin-induced increase in NFκB activity (NFκB): diminished
FoxO1 phosphorylation/inactivation [4]: increase FoxO1 phosphorylation/inactivation
inhibition of aPKC, Akt2, AMPK [4]: inhibit aPKC but not Akt2 or AMP-activated kinase (AMPK)
effect on recombinant PKC-α, PKC-β, PKC-δ, PKCε, PKC-θ [5]: no effect
insulin-induced increase in BACE1 levels (BACE1; 200 nM insulin, 24 hours, increasing concentrations of ICAPP): diminished
basal/resting levels of BACE1 (BACE1; at higher levels of inhibitor): reduced basal/resting levels of BACE1

Structure (SMILES): O=C(O)CC([S-])C(=O)O.[Au+] (centres unmarked) [aurothiomalate]
insulin activation of aPKC (PB1 site) (PKCι and PKCζ): inhibit insulin activation of aPKC
